Measurements from patent publication US11357819B2, “Cytocidal agent” (FUJITA ACADEMY, priority 2017, dated 2022).
“Also recorded” adds a separate entry of the source. Like-named read-outs stand apart in the source and are kept apart here. Where a SMILES comes first, the peptide text is derived from it. [ ]: non-standard residue; d: D form.

Legend:
A431-CNGB3-myc cells = experiment: Cytocidal activity by ATP amount (CellTiter-Glo luminescence) in peptide-treated A431-CNGB3-myc cells; format: cell-based, human; settings: for cytocidal activity (relative ATP amount %): Example 6, A431-CNGB3-myc cells, 2.34 to 300.0 μM, FIG. 10
Description: A transformed cell (A431-CNGB3-myc cell) obtained by introducing a gene encoding human CNGB3, in which an myc tag was fused in a C-terminal, into an A431 cell (human epithelial-like cell cancer-derived cell strain) and forcibly expressing thereof was prepared as an endometriosis model cell.
Culturing of the A431-CNGB3-myc cell was performed at 37° C. in a 5 volume % carbon dioxide environment using a medium in which 10% of inactivated FBS (bovine fetal serum, manufactured by Corning Corporation) and 1% of penicillin-streptomycin (manufactured by Invitrogen Corporation) were contained in a DMEM High Glucose medium (manufactured by GIBCO Corporation), as a culture medium. Passage was performed every two or three days.
The cytocidal activity of each peptide was evaluated by measuring an ATP amount in A431-CNGB3-myc cells treated with each peptide using CellTiter-Glo (registered trademark) assay kit (manufactured by Promega).
Specifically, first, A431-CNGB3-myc cells after 2 passages were disseminated into a 96-well plate (manufactured by Corning/Costar, Lot No. 00515003) so as to be 1×10^4 cells/well by preparing the concentration of the cells. After culturing for 2 days after the dissemination, each peptide was added to each well such that a final concentration was […], 75, or 150 μM, respectively, and cultured for 24 hours. Thereafter, the culture supernatant was removed from each well, and CellTiter-Glo buffer was added to the remaining cells, and after homogenization, the supernatant was recovered by centrifugation and used as a lysate. A double quantity of PBS and a 2×CellTiterGlo Reagent of the equivalent amount of the lysate were added to the lysate and stirred to obtain a reaction solution, and the reaction solution was stood at room temperature for 10 minutes. The luminescence intensity (Luminescence) (RLU: RELATIVE LIGHT UNITS) of the reaction solution after standing at room temperature was measured using a Synergy H1 hybrid multi-mode microplate reader (manufactured by BioTek Corporation). The luminescence intensity of the reaction solution is an indicator of the amount of ATP. It is shown that the smaller the luminescence intensity of the reaction solution is, the amount of ATP is small, and the cytocidal activity of the administered peptide is strong. All trials were measured in triplicate and the average was evaluated as the cytocidal activity at the concentration of each peptide.
The final concentration of each peptide added to the A431-CNGB3-myc cells disseminated into the 96-well plate was set to be 2.34, 4.69, 9.38, 18.8, 37.5, 75, or 150 μM, and the cytocidal activity of each peptide was evaluated in the same manner as that of Reference Example 1, except that the culture time after addition of the peptide was set to 20 hours. In the evaluation of the cytocidal activity against the A431-CNGB3-myc cells of each peptide, the measurement result of the fluorescence intensity (RLU) of each reaction solution is shown in FIG. 2. In the figure, “1” to “16” show the result of the reaction solution to which peptides 1 to 16 of Table 2 were added, respectively.
The cytocidal activity of each peptide was evaluated in the same manner as that of Example 1, except that the final concentration of each peptide added to each cell disseminated into the 96-well plate was set to be 0 (peptide non-added), 2.34, 4.69, 9.38, 18.8, 37.5, 75.0, 150.0, or 300.0 μM. A relative fluorescence intensity (%) of each reaction solution in a case Where the fluorescence intensity (RLU) of the reaction solution to which no peptide was added was set to 100% was calculated as a relative ATP amount (%). […]

[1] = tested on: Ishikawa, SNG-II, Hec-1A and RL95-2 cells (cell strains derived from a uterine cancer cell); experiment: Cytocidal activity by relative ATP amount (CellTiter-Glo) in cell strains derived from uterine cancer cells; format: cell-based, human; settings: Example 6, 2.34 to 300.0 μM, 20 hours, FIGS. 11 to 14
Description: As the cancer-derived cell strain, an Ishikawa cell derived from human endometrium gland cancer, an SNG-II cell derived from human endometrium cancer, an Hec-1A cell derived from human uterine body cancer, and a RL95-2 cell derived from human endometrium cancer were used. The cells were cultured in the same manner as the A431-CNG133-myc cells.
The cytocidal activity of each peptide was evaluated in the same manner as that of Example 1, except that the final concentration of each peptide added to each cell disseminated into the 96-well plate was set to be 0 (peptide non-added), 2.34, 4.69, 9.38, 18.8, 37.5, 75.0, 150.0, or 300.0 μM. A relative fluorescence intensity (%) of each reaction solution in a case Where the fluorescence intensity (RLU) of the reaction solution to which no peptide was added was set to 100% was calculated as a relative ATP amount (%). In the figure, the “14D−Z13+5D−Z13” represents a relative ATP amount of the reaction solution to which both of a peptide A2-1 and a peptide A2-2 were added, the “14D−Z13” represents a relative ATP amount of the reaction solution to which only the peptide A2-1 was added, the “5D−Z13” represents a relative ATP amount of the reaction solution to Which only the peptide A2-2 was added, and the “14D−5D−Z13” represents a relative ATP amount (%) of the reaction solution to which only the peptide A2 was added, respectively.

[2] = in vivo
Description: A weight of each mouse was measured before being died of bleeding.
As a result, in the control group into which a peptide was not administered (n=8), the number of dead individuals after 24 days from transplanting the A431-CNGB3-myc cells into the peritoneal cavity was 1, and the alive rate was […]. With respect to this, in a group into which the IF7 (RR)−(K+H) peptide was administered such that the IF7 (RR)−(K+H) peptide was 10 μg/body/day or 50 μg/body (n=6), the alive rate was 100%. In addition, at the time of the end of the test, the spread of cancer cells (A431-CNGB3-myc cells) in the peritoneal cavity of all mice was examined.

[3] = Reference Example 1, peptide 35.5, 75 or 150 μM, 24 hours, FIG. 1
[4] = Example 1, peptide 2.34 to 150 μM, 20 hours, FIG. 2

## HLAHL-VRRADNRPG (HLAHLVRRADNRPG; KLAK(14)-HLAH(5)-Z13 peptide) [Peptide A2-2]
A431-CNGB3-myc cells; 20 hours
  cytocidal activity (relative ATP amount %): hardly observed or significantly weak
[1]
  cytocidal activity (relative ATP amount %): hardly observed or significantly weak

## KLAKLAK-KLAKLAK-HLAHLAH-HLAHLAH-VRRADNRPG (KLAKLAKKLAKLAKHLAHLAHHLAHLAHVRRADNRPG; D-residues) [WT]
A431-CNGB3-myc cells; [3]
  cytocidal activity (luminescence intensity RLU, indicator of ATP amount): concentration-dependent cytocidal activity
  cytocidal activity, comparison between peptides: stronger cytocidal activity than the peptide D5E

## KLAKLAK-KLAKLAK-HLAHLAH-HLAHLAH-VRRAENRPG (KLAKLAKKLAKLAKHLAHLAHHLAHLAHVRRAENRPG; KLAK(14)-HLAH(14)-D5E peptide) [Peptide D5E]
A431-CNGB3-myc cells; [3]
  cytocidal activity (luminescence intensity RLU, indicator of ATP amount): concentration-dependent cytocidal activity

## HLAHLAH-HLAHLAH-KLAKLAK-VRRADNRPG (HLAHLAHHLAHLAHKLAKLAKVRRADNRPG; HLAH(14)-KLAK(13)-Z13 peptide) [Peptide 16]
A431-CNGB3-myc cells; [4]
  cytocidal activity, comparison between peptides: stronger cytocidal activity than the longest peptide 9

## KLAKLAK-KLAKLAK-HLAHLAH-VRRADNRPG (KLAKLAKKLAKLAKHLAHLAHVRRADNRPG; KLAK(14)-HLAH(7)-Z13 peptide) [Peptide 8]
A431-CNGB3-myc cells; [4]
  cytocidal activity, comparison between peptides: stronger cytocidal activity than the longest peptide 1; also recorded: strongest cytocidal activity

## CC[C@H](C)[C@H](N)C(=O)N[C@@H](Cc1ccccc1)C(=O)N[C@@H](CC(C)C)C(=O)N[C@@H](CC(C)C)C(=O)N[C@@H](Cc1c[nH]c2ccccc12)C(=O)N[C@@H](CCC(N)=O)C(=O)N[C@@H](CCCNC(=N)N)C(=O)N[C@@H](CCCNC(=N)N)C(=O)N[C@@H](CCCNC(=N)N)C(=O)N[C@H](CCCCN)C(=O)N[C@H](CC(C)C)C(=O)N[C@H](C)C(=O)N[C@H](CCCCN)C(=O)N[C@H](CC(C)C)C(=O)N[C@H](C)C(=O)N[C@H](CCCCN)C(=O)N[C@H](CCCCN)C(=O)N[C@H](CC(C)C)C(=O)N[C@H](C)C(=O)N[C@H](CCCCN)C(=O)N[C@H](CC(C)C)C(=O)N[C@H](C)C(=O)N[C@H](CCCCN)C(=O)N[C@H](Cc1c[nH]cn1)C(=O)N[C@H](CC(C)C)C(=O)N[C@H](C)C(=O)N[C@H](Cc1c[nH]cn1)C(=O)N[C@H](CC(C)C)C(=O)O [IF7 (RR)−(K+H) peptide, IFLLWQR-RR-KLAKLAK-KLAKLAK-HLAHL] (H-IFLLWQRRR[dK][dL][dA][dK][dL][dA][dK][dK][dL][dA][dK][dL][dA][dK][dH][dL][dA][dH][dL]-OH)
[2]
  weight of each mouse: no particular change

## CC(C)C[C@@H](NC(=O)[C@H](N)CCCCN)C(=O)N[C@H](C)C(=O)N[C@H](CCCCN)C(=O)N[C@H](CC(C)C)C(=O)N[C@H](C)C(=O)N[C@H](CCCCN)C(=O)N[C@H](CCCCN)C(=O)N[C@H](CC(C)C)C(=O)N[C@H](C)C(=O)N[C@H](CCCCN)C(=O)N[C@H](CC(C)C)C(=O)N[C@H](C)C(=O)N[C@H](CCCCN)C(=O)N[C@H](Cc1c[nH]cn1)C(=O)N[C@H](CC(C)C)C(=O)N[C@H](C)C(=O)N[C@H](Cc1c[nH]cn1)C(=O)N[C@H](CC(C)C)C(=O)N[C@H](C(=O)N[C@@H](CCCNC(=N)N)C(=O)N[C@@H](CCCNC(=N)N)C(=O)N[C@@H](C)C(=O)N[C@@H](CC(=O)O)C(=O)N[C@@H](CC(N)=O)C(=O)N[C@@H](CCCNC(=N)N)C(=O)N1CCC[C@H]1C(=O)NCC(=O)O)C(C)C [Peptide A2, KLAKLAK-KLAKLAK-HLAHL-VRRADNRPG] (H-[dK][dL][dA][dK][dL][dA][dK][dK][dL][dA][dK][dL][dA][dK][dH][dL][dA][dH][dL]VRRADNRPG-OH)
[2]; ip
  weight of each mouse: no particular change

## KLAKLAK-KLAKLAK-VRRADNRPG (KLAKLAKKLAKLAKVRRADNRPG; KLAK(14D)-Z13 peptide) [Peptide A2-1]
A431-CNGB3-myc cells; 20 hours
  cytocidal activity (relative ATP amount %): hardly observed or significantly weak
[1]
  cytocidal activity (relative ATP amount %): hardly observed or significantly weak
